Source: patent US12685719B2, “Treatment of breast cancer with selective androgen receptor modulators and cyclin-dependent kinase 4/6 inhibitors” (UNIVERSITY OF TENNESSEE RESEARCH FOUNDATION, priority 2012, dated 2026)

Experiments:
GR = biological target: T1, GR (Rattus norvegicus, UniProt P06536); test: Transcriptional activation (luciferase) in HEK-293 cells, GR; assay type: cell-based
T1 construct: expressed in transfected cells
T1 sequence (P06536 1-795): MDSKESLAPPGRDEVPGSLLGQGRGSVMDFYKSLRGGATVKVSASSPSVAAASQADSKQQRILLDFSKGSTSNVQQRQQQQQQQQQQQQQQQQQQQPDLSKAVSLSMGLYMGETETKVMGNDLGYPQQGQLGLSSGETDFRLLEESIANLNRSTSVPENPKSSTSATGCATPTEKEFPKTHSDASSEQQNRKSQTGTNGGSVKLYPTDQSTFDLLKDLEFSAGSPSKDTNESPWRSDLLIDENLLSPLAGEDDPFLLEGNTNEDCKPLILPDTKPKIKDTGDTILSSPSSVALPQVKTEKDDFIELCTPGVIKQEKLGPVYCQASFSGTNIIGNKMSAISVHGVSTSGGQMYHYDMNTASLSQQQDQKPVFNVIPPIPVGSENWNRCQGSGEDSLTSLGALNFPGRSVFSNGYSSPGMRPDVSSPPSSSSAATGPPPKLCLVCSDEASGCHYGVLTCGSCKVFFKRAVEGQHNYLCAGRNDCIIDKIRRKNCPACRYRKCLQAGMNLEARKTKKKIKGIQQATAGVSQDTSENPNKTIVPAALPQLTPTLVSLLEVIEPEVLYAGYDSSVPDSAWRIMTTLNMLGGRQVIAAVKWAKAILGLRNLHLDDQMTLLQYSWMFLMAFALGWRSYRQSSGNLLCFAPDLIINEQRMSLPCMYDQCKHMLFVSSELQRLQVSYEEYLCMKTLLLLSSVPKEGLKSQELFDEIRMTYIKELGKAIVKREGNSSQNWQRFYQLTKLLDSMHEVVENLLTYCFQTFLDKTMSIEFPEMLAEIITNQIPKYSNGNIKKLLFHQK
Description: (§1) Rat GR, MR, PR, ER-α and ER-β were individually cloned into a pCR3.1 vector backbone. Sequencing was performed to verify the absence of any mutations. HEK-293 cells were plated at 90,000 cells per well of a 24 well plate in Dulbecco's Minimal Essential Media supplemented with 5% charcoal-stripped FBS. […] Luciferase assays were performed 48 h after transfection. Transcriptional activation values are represented as firefly luciferase normalized to Renilla luciferase.

[1] = tested on: MDA-MB-231 breast cancer cells stably transfected with AR; test: Proliferation of MDA-MB-231 cells stably transfected with AR (Coulter counter); assay type: cell-based; conditions: 6 days
Description: MDA-MB-231 cells stably transfected with AR using lentivirus were treated with the indicated ligands for 6 days and the number of cells counted using Coulter counter.

MR = biological target: T2, MR (Rattus norvegicus, UniProt P22199); test: Transcriptional activation (luciferase) in HEK-293 cells, MR; assay type: cell-based
T2 construct: expressed in transfected cells
T2 sequence (P22199 1-981): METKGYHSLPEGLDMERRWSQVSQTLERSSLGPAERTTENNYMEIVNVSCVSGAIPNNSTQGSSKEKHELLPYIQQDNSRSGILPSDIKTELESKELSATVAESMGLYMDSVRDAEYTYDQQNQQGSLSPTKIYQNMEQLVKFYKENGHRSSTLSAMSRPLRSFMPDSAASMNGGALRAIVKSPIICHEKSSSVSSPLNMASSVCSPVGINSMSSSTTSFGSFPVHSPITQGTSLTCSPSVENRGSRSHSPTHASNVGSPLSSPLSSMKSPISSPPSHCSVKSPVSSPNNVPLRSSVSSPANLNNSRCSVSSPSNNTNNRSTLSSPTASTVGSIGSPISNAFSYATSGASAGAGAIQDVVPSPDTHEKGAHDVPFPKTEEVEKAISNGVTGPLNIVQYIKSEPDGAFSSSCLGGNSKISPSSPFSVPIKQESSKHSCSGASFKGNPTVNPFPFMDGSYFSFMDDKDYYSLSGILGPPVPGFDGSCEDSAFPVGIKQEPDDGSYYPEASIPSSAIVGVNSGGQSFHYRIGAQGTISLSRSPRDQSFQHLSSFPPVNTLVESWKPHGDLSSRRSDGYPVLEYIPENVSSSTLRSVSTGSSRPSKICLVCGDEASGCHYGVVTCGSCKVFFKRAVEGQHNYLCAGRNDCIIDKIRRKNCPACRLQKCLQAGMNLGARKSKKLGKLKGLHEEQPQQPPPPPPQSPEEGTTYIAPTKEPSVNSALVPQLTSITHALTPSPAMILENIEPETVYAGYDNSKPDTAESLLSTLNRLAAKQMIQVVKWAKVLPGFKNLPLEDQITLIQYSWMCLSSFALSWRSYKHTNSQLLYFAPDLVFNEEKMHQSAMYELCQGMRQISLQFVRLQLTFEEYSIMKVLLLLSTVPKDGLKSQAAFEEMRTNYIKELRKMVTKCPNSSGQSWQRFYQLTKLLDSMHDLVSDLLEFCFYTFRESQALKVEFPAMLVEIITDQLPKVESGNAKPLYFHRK
Description: as §1

[2] = tested on: MDA-MB-231-AR triple negative breast cancer cells; test: MDA-MB-231-AR xenograft in female nude mice; assay type: in vivo; conditions: for body weight: all doses of Formula VIII and Formula IX
Description: MDA-MB-231-AR triple negative breast cancer cells (2 million cells/mouse; MDA-MB-231 cells stably transfected with AR using lentivirus) were mixed with matrigel (1:1) and injected subcutaneously into the flanks of intact female nude mice (n=5/group). When the tumors reached 150-200 mm^3, the animals were separated into two groups, one receiving vehicle and the other receiving 30 mg/kg Formula VIII orally. Tumor volume was measured thrice weekly and % tumor growth inhibition (TGI) was calculated. At the end of 35 days of treatment, the animals were sacrificed, tumors excised, weighed, and collected for various analyses. Blood was collected and serum separated for drug concentration measurement.

AR = biological target: T3, AR (Homo sapiens, UniProt P10275); test: AR transactivation (GRE-LUC luciferase) in MDA-MB-231 cells; assay type: cell-based; conditions: cells transfected with AR and GRE-LUC
T3 construct: expressed in transfected cells; host or cells: MDA-MB-231
Description: Though AR transactivation assay was performed in HEK-293 cells, the ability of ligands to function as agonists or antagonists depends on cellular microenvironment. […] The cells were treated 24 h after transfection and luciferase assay performed 48 h after transfection.

ER-β = biological target: T4, ER-β (Rattus norvegicus, UniProt Q62986); test: Transcriptional activation (luciferase) in HEK-293 cells, ER-β; assay type: cell-based; parameters: activation of ER-β: dose or concentration left out as unconfirmed
T4 construct: expressed in transfected cells
Description: as §1, with “FBS. The cells were transfected using Lipofectamine (Invitrogen, Carlsbad, CA) with […] GRE-LUC for GR, MR and PR and ERE-LUC for ER-α and ER-β, 0.5 ng CMV-LUC (Renilla luciferase) and 12.5-25 ng of the respective expression vector for each receptor.” for “FBS.”

[3] = agonist mode, all the tested concentrations

T4 sequence (Q62986 whole entry): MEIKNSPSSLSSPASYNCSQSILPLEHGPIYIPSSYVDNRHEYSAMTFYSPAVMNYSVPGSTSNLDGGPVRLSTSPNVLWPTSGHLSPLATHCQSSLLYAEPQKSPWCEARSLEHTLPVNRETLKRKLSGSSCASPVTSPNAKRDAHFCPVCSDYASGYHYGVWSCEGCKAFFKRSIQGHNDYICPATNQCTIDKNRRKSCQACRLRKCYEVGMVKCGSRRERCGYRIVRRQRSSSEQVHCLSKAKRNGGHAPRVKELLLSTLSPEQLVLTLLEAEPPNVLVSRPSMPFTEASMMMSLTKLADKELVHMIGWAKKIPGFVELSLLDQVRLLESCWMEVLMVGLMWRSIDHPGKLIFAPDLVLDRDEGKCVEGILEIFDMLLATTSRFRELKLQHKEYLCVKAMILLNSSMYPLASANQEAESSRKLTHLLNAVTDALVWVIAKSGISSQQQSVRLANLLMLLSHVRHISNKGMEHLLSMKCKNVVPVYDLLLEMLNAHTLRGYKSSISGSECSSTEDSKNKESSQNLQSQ
T3 sequence (P10275 whole entry): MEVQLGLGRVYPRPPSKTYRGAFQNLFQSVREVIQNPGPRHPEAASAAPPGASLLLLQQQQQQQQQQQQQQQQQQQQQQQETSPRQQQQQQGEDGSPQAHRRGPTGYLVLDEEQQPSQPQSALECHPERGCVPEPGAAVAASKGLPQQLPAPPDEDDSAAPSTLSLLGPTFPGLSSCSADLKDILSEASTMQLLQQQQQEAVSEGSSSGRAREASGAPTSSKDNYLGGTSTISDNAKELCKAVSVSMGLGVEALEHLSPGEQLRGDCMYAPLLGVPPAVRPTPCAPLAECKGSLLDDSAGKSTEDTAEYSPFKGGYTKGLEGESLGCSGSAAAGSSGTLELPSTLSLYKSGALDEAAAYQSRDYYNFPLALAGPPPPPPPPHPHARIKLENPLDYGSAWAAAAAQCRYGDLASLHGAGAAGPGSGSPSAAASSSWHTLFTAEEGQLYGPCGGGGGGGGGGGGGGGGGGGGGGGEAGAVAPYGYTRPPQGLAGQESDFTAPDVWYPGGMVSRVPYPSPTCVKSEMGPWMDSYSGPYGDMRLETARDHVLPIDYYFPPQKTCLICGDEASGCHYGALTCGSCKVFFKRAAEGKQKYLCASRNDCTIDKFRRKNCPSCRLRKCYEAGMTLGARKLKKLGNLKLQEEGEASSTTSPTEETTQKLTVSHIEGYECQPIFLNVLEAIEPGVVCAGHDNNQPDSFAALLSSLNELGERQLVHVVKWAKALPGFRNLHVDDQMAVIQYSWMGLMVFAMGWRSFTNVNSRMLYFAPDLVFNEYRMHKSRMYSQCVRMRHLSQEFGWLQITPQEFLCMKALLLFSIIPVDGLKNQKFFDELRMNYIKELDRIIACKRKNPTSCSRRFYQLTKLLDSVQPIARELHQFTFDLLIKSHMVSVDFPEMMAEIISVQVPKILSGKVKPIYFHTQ

SMILES | receptor-mediated transactivation of GR (stimulate or inhibit) (GR) | proliferation (number of cells) [1] | receptor-mediated transactivation of MR (stimulate or inhibit) (MR) | body weight [2] | AR agonist activity (transactivation) (AR) | receptor-mediated transactivation of ERβ (stimulate or inhibit) (ER-β) | GR-mediated transactivation (GR; [3]) | dexamethasone-induced GR-mediated transactivation (GR; antagonist mode) | MR-mediated transactivation (MR; [3]) | aldosterone-induced MR-mediated transactivation (MR; antagonist mode) | toxicity / changes in body weight ([2]; 30 mg/kg orally, 35 days) | activation of ER-β (ER-β; agonist mode, highest tested concentration) | 17β-estradiol-induced ER-β activity (ER-β; antagonist mode)
C[C@](O)(COc1ccc(C#N)cc1)C(=O)Nc1ccc(C#N)c(C(F)(F)F)c1 [Formula IX, (S)-N-(4-Cyano-3-(trifluoromethyl)phenyl)-3-(4-cyanophenoxy)-2-hydroxy-2-methylpropanamide] | do not stimulate or inhibit | inhibited the proliferation | do not stimulate or inhibit | increased body weight | agonists of AR | do not stimulate or inhibit | – | – | – | – | – | – | –
C[C@](O)(COc1ccc(C#N)cc1)C(=O)Nc1ccc(C#N)c(Cl)c1 [Formula VIII, (S)-N-(3-chloro-4-cyanophenyl)-3-(4-cyanophenoxy)-2-hydroxy-2-methylpropanamide] | do not stimulate or inhibit | inhibited the proliferation | do not stimulate or inhibit | increased body weight | agonists of AR | do not stimulate or inhibit | did not induce | failed to alter | did not induce | failed to alter | without any associated toxicity or changes in body weight | failed to activate | failed to alter
